From patent US9308182B2 (TEVA PHARMACEUTICAL INDUSTRIES, LTD., priority 2012, dated 2016)
Where two headings read alike, the source gives them in different places.

Experiments:
[1] = biological target: MAO-A (Rattus norvegicus, UniProt P21396); experiment: in vivo; conditions: rat, sc
Text: (§1) ALZET® osmotic minipumps are described in Perkins L, Peer C, and Murphy-Hackley P. “Chapter 21: The use of mini-osmotic pumps in continuous infusion studies” in Handbook of Pre-Clinical Continuous Intravenous Infusion, (Smith & Healing, eds., Taylor and Francis, 2000), the contents of which are incorporated herein by reference.
(§2) The osmotic minipumps were inserted subcutaneously with a single surgical procedure: after clipping the fur from the dorsal area and cleaning the skin with antiseptic skin preparation, about 1 cm long incision was made on the dorsum of the animal, midway between both scappulae. The pump was placed along the axis of the body to one side of the backbone. The incision was positioned about 1-2 cm caudal to the estimated caudal end of the minipump when it is in place.
(§3) After two weeks of treatment the animals were sacrificed. From each rat, brain (half) and a part of liver were dissected and frozen. The intestine was excised about ½ cm below the stomach about 1-2 cm long, washed with sucrose 0.32 Molar and frozen at −70° C.
(§4) Tissue homogenates were pre incubated (37° C.) in the presence of clorgyline or deprenyl to inhibit the activity of MAO-A or MAO-B respectively. For MAO-B determination, samples were incubated for 20 minutes with C^14 PEA 10 μM and for MAO-A determination samples were incubated 30 minutes with C^14 −5HT 100 μM as substrate Termination of the reaction was done by acidification. The labeled metabolites were extracted into toluene:ethyl acetate, and counted in a β counter.

[2] = biological target: MAO-B (Rattus norvegicus, UniProt P19643); experiment: in vivo; conditions: for MAO-B activity, brain / MAO-B activity, intestine / MAO-B activity, liver: two weeks; for inhibition at 0.02 mg/kg/day / inhibition at 0.4 mg/kg/day / inhibition at 0.8 mg/kg/day / inhibition at 0.05 mg/kg/day / inhibition at 0.1 mg/kg/day / inhibition at 0.2 mg/kg/day: rat
Sequence of MAO-B (P19643 whole entry): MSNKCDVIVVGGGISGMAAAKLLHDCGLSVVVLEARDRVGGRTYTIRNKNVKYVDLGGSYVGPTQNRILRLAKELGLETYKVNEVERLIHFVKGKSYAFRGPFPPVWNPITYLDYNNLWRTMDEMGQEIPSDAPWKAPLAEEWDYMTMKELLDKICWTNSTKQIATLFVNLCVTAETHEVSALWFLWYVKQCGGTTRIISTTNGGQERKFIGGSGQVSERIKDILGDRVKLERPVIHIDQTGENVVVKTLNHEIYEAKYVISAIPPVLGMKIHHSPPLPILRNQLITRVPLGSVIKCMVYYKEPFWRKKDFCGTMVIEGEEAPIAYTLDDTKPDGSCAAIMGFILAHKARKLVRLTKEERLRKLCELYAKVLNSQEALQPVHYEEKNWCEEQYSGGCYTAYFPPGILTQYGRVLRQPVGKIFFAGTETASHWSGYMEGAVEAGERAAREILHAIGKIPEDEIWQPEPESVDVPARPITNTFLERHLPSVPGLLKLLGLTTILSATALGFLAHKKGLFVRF
Text: as §1, §2, §3, §4

[3] = rats
Text: as §1
ALZET® pumps groups were weighed on the first and last day of the study. The oral administered groups were weighed on the first day and also on day 6 and 13 of the study.

[4] = AZILECT Product Label, May 2006; cited from earlier work
[5] = read-out: Percent of MAO-A inhibition, liver
[6] = po, read-out: Percent of MAO-B inhibition, brain
[7] = po, read-out: Percent of MAO-B inhibition, intestine
[8] = po, read-out: Percent of MAO-B inhibition, liver
[9] = sc, read-out: Percent of MAO-B inhibition, brain
[10] = sc, read-out: Percent of MAO-B inhibition, intestine
[11] = sc, read-out: Percent of MAO-B inhibition, liver

Sequence of MAO-A (P21396 whole entry, the tested form may be a part): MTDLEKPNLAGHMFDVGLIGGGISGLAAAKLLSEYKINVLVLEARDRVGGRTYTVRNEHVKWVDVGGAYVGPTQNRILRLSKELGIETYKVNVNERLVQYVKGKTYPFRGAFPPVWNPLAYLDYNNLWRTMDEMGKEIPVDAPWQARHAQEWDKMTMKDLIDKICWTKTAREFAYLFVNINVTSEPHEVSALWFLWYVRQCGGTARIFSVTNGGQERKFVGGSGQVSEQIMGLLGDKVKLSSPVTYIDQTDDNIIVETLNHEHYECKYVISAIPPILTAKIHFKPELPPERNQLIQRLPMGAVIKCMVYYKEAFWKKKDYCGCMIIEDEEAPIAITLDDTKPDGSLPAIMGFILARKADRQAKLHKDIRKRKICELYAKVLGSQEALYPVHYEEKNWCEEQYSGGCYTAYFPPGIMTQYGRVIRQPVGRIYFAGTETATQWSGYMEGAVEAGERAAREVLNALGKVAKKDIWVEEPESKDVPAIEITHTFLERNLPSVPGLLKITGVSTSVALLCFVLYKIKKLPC

C#CCN[C@@H]1CCc2ccccc21 [rasagiline, R(+)-N-propargyl-l-aminoindan]
inhibition at 0.8 mg/kg/day ([1]; read-out: Percent of MAO-A inhibition, intestine): 42% | inhibition at 0.02 mg/kg/day [1, 5]: 1% | inhibition at 0.05 mg/kg/day [1, 5]: 1% | inhibition at 0.1 mg/kg/day [1, 5]: 13% | inhibition at 0.2 mg/kg/day [1, 5]: 71% | inhibition at 0.4 mg/kg/day [1, 5]: 99% | inhibition at 0.8 mg/kg/day [1, 5]: 100% | MAOB inhibition in the brain, ALZET pumps versus oral group ([2]; brain): No change | MAO-B activity, brain ([2]; brain, oral, 0.02 mg/kg/day (salt)): 1586 dpm | MAO-B activity, brain ([2]; brain, oral, 0.05 mg/kg/day (salt)): 494 dpm | MAO-B activity, brain ([2]; brain, oral, 0.1 mg/kg/day (salt)): 181 dpm | MAO-B activity, brain ([2]; brain, oral, 0.2 mg/kg/day (salt)): 69 dpm | MAO-B activity, brain ([2]; brain, oral, 0.4 mg/kg/day (salt)): 34 dpm | MAO-B activity, brain ([2]; brain, oral, 0.8 mg/kg/day (salt)): 9 dpm | MAO-B activity, brain ([2]; brain, sc ALZET pumps, 0.02 mg/kg/day (salt)): 1229 dpm | MAO-B activity, brain ([2]; brain, sc ALZET pumps, 0.05 mg/kg/day (salt)): 346 dpm | MAO-B activity, brain ([2]; brain, sc ALZET pumps, 0.1 mg/kg/day (salt)): 198 dpm | MAO-B activity, brain ([2]; brain, sc ALZET pumps, 0.2 mg/kg/day (salt)): 75 dpm | MAO-B activity, brain ([2]; brain, sc ALZET pumps, 0.4 mg/kg/day (salt)): 38 dpm | MAOB inhibition in the intestine and liver, ALZET pumps compared with oral administration ([2]; intestine and liver, daily dose of up to 0.1 mg/kg): lower | maximal MAO-B inhibition in the intestine ([2]; intestine, both routes (oral, ALZET pumps)): about 85% | MAO-B activity, intestine ([2]; intestine, oral, 0.02 mg/kg/day (salt)): 3633 dpm | MAO-B activity, intestine ([2]; intestine, oral, 0.05 mg/kg/day (salt)): 3115 dpm | MAO-B activity, intestine ([2]; intestine, oral, 0.1 mg/kg/day (salt)): 2493 dpm | MAO-B activity, intestine ([2]; intestine, oral, 0.2 mg/kg/day (salt)): 2424 dpm | MAO-B activity, intestine ([2]; intestine, oral, 0.4 mg/kg/day (salt)): 2108 dpm | MAO-B activity, intestine ([2]; intestine, oral, 0.8 mg/kg/day (salt)): 2105 dpm | MAO-B activity, intestine ([2]; intestine, sc ALZET pumps, 0.02 mg/kg/day (salt)): 8265 dpm | MAO-B activity, intestine ([2]; intestine, sc ALZET pumps, 0.05 mg/kg/day (salt)): 4346 dpm | MAO-B activity, intestine ([2]; intestine, sc ALZET pumps, 0.1 mg/kg/day (salt)): 3225 dpm | MAO-B activity, intestine ([2]; intestine, sc ALZET pumps, 0.2 mg/kg/day (salt)): 2391 dpm | MAO-B activity, intestine ([2]; intestine, sc ALZET pumps, 0.4 mg/kg/day (salt)): 1852 dpm | MAO-B activity, intestine ([2]; intestine, sc ALZET pumps, 0.8 mg/kg/day (salt)): 1879 dpm | MAO-B activity, liver ([2]; oral, 0.02 mg/kg/day (salt)): 1127 dpm | MAO-B activity, liver ([2]; oral, 0.05 mg/kg/day (salt)): 511 dpm | MAO-B activity, liver ([2]; oral, 0.1 mg/kg/day (salt)): 224 dpm | MAO-B activity, liver ([2]; oral, 0.2 mg/kg/day (salt)): 136 dpm | MAO-B activity, liver ([2]; oral, 0.4 mg/kg/day (salt)): 38 dpm | MAO-B activity, liver ([2]; sc ALZET pumps, 0.02 mg/kg/day (salt)): 1974 dpm | MAO-B activity, liver ([2]; sc ALZET pumps, 0.05 mg/kg/day (salt)): 912 dpm | MAO-B activity, liver ([2]; sc ALZET pumps, 0.1 mg/kg/day (salt)): 486 dpm | MAO-B activity, liver ([2]; sc ALZET pumps, 0.2 mg/kg/day (salt)): 312 dpm | MAO-B activity, liver ([2]; sc ALZET pumps, 0.4 mg/kg/day (salt)): 181 dpm | MAO-B activity, liver ([2]; sc ALZET pumps, 0.8 mg/kg/day (salt)): 166 dpm | inhibition at 0.02 mg/kg/day [2, 6]: 83% | inhibition at 0.4 mg/kg/day [2, 6]: 100% | inhibition at 0.8 mg/kg/day [2, 6]: 100% | inhibition at 0.02 mg/kg/day [2, 7]: 74% | inhibition at 0.05 mg/kg/day [2, 7]: 78% | inhibition at 0.1 mg/kg/day [2, 7]: 82% | inhibition at 0.2 mg/kg/day [2, 7]: 83% | inhibition at 0.4 mg/kg/day [2, 7]: 85% | inhibition at 0.8 mg/kg/day [2, 7]: 85% | inhibition at 0.02 mg/kg/day [2, 8]: 83% | inhibition at 0.05 mg/kg/day [2, 8]: 92% | inhibition at 0.8 mg/kg/day [2, 8]: 100% | inhibition at 0.4 mg/kg/day [2, 9]: 100% | inhibition at 0.8 mg/kg/day [2, 9]: 100% | inhibition at 0.02 mg/kg/day [2, 10]: 37% | inhibition at 0.05 mg/kg/day [2, 10]: 67% | inhibition at 0.1 mg/kg/day [2, 10]: 76% | inhibition at 0.2 mg/kg/day [2, 10]: 82% | inhibition at 0.4 mg/kg/day [2, 10]: 86% | inhibition at 0.8 mg/kg/day [2, 10]: 86% | inhibition at 0.02 mg/kg/day [2, 11]: 67% | inhibition at 0.05 mg/kg/day [2, 11]: 85% | inhibition at 0.1 mg/kg/day [2, 11]: 92% | weight gain ([3]; 0.8 mg/kg/day delivered by ALZET pumps, first to last day of two-week study): 1.3% | weight gain ([3]; all oral and ALZET pump groups except 0.8 mg/kg/day by ALZET pumps): 6-9% | absolute bioavailability [4]: about 36%
